Data published in patent publication US5498775A, “Polyanionic benzylglycosides as inhibitors of smooth muscle cell proliferation” (American Home Products Corporation, priority 1994, dated 1996).

Key:
[1] = tested on: human endothelial cell; assay: Effect on endothelial cell growth vs. smooth muscle cell proliferation; type: cell-based; details: driven by 2% FBS, at doses inhibitory towards human SMC proliferation driven by 10% FBS; FIG. 1
Description: (§1) The ability of the compounds of the present invention to inhibit smooth muscle cell proliferation and modulate endothelial cell growth was established using isolated aortic cells obtained from commercial sources or, for certain species, prepared in-house. Cell lines used in this study include human and porcine aortic smooth muscle cells and human aortic endothelial cells. Human aortic cell lines were obtained from Clonetics Corporation (San Diego).
B. Effects of compounds on cell proliferation using ^3 H Thymidine incorporation
Cells were assayed in early passage (generally passage 3-7) at sub-confluent conditions. Cultures were grown in 16 mm (24 well) multi-well culture dishes in media 199 supplemented with 10% fetal bovine serum and 2% antibiotic/antimycotic. At sub-confluence, the cells were placed in a defined serum free medium (AIM-V; Gibco) for 24-48 h prior to initiating the experimental protocol.
Growth factor and serum stimulations were optimized for each cell type.
Compounds were added to each well at 50 fold dilution (20 μL/well) and the plates were incubated for 24-36 h at 37° C. in 5% CO2. […] Compounds were routinely assayed at 1, 10, and 100 μM. […]
Data was obtained, in triplicate, for both control and experimental samples. […] Data was expressed as a percent of control from which IC50 s could be determined. […]

[2] = tested on: normal human plasma; assay: Anticoagulant activity, partial thromboplastin time (APTT) assay; type: biochemical; details: ratio >1 indicates weaker activity relative to heparin on a μg/mL comparison
Procedure: A BBL Fibrometer automatic precesion coagulation timer utilizing a 0.3 mL probe was employed. An Ellagic acid activated partial thromboplastin was used for these experiments. This reagent was added to human citrated plasma equilibrated at 37° C. in a plastic well in the clot timer. Calcium at 37° C. was added, the clot timer was started and the time for fibrin clot formation (in seconds) was recorded. […] Clotting tests at all concentrations were run in triplicate. Analysis of variance for a randomized block design was used to determine the significance of differences observed in the clotting times.

[3] = tested on: human and porcine aortic smooth muscle cells and human aortic endothelial cells; assay: Cytotoxicity, MTT assay; type: cell-based; details: up to 250 μM, 24 h at 37° C., without serum
Description: as §1
Briefly, cells were again grown in 24 well plates to 70-80% confluency and, as before, serum deprived for 24-48 h prior to initiation of the experimental protocol. To insure that the MTT assay monitored toxicity rather than proliferation, cells were incubated with 250 μM drug in fresh medium without serum for 24 h at 37° C. in a humidified CO2 incubator. Upon completion of the compound treatment, MTT (3-[4,5-dimethylthiazol-2-yl]-2,5-diphenyltetrazolium bromide) indicator dye was added for 4 h at 37° C. Cells were then lysed and aliquots from each well were transferred to a 96 well plate for analysis. Absorbance at 570 nm wavelength with a reference wavelength of 630 nm was recorded using an ELISA plate reader. Results are reported as percent viable using no drug (100% viable) and pre-solubilization (0% viable) standards.

Compound: O=C(Nc1cc(CO[C@@H]2O[C@H](COS(=O)(=O)O)[C@@H](O[C@H]3O[C@H](COS(=O)(=O)O)[C@@H](OS(=O)(=O)O)[C@H](OS(=O)(=O)O)[C@H]3OS(=O)(=O)O)[C@H](OS(=O)(=O)O)[C@H]2OS(=O)(=O)O)cc(CO[C@@H]2O[C@H](COS(=O)(=O)O)[C@@H](O[C@H]3O[C@H](COS(=O)(=O)O)[C@@H](OS(=O)(=O)O)[C@H](OS(=O)(=O)O)[C@H]3OS(=O)(=O)O)[C@H](OS(=O)(=O)O)[C@H]2OS(=O)(=O)O)c1)c1ccc(-c2ccc(C(=O)Nc3cc(CO[C@@H]4O[C@H](COS(=O)(=O)O)[C@@H](O[C@H]5O[C@H](COS(=O)(=O)O)[C@@H](OS(=O)(=O)O)[C@H](OS(=O)(=O)O)[C@H]5OS(=O)(=O)O)[C@H](OS(=O)(=O)O)[C@H]4OS(=O)(=O)O)cc(CO[C@@H]4O[C@H](COS(=O)(=O)O)[C@@H](O[C@H]5O[C@H](COS(=O)(=O)O)[C@@H](OS(=O)(=O)O)[C@H](OS(=O)(=O)O)[C@H]5OS(=O)(=O)O)[C@H](OS(=O)(=O)O)[C@H]4OS(=O)(=O)O)c3)cc2)cc1 [EXAMPLE 18]
- effect on human endothelial cell growth [1]: enhance human endothelial cell growth
- Anticoagulation Activity (APTT) Relative to Heparin [2]: 2.1

Compound: Cc1ccc(CO[C@@H]2O[C@H](COS(=O)(=O)O)[C@@H](O[C@H]3O[C@H](COS(=O)(=O)O)[C@@H](OS(=O)(=O)O)[C@H](OS(=O)(=O)O)[C@H]3OS(=O)(=O)O)[C@H](OS(=O)(=O)O)[C@H]2OS(=O)(=O)O)cc1NC(=O)c1cccc(NC(=O)Nc2cccc(C(=O)Nc3cc(CO[C@@H]4O[C@H](COS(=O)(=O)O)[C@@H](O[C@H]5O[C@H](COS(=O)(=O)O)[C@@H](OS(=O)(=O)O)[C@H](OS(=O)(=O)O)[C@H]5OS(=O)(=O)O)[C@H](OS(=O)(=O)O)[C@H]4OS(=O)(=O)O)ccc3C)c2)c1 [EXAMPLE 26, STEP 5]
- cytotoxicity (MTT) [3]: No toxicity was observed up to 250 μM
